Results from PubChem BioAssay AID1259407 (Chemical Carcinogenesis Research Information System (CCRIS), 2018).
The source made the active and inactive calls. The rule behind the calls is not given here.

System: CCRIS mutagenicity, Ames/micronucleus/aberration tests
Test: CCRIS mutagenicity studies
[1] = Test System: AMES SALMONELLA TYPHIMURIUM, Strain/Indicator: TA98, Metabolic Activation: NONE, Method: PREINCUBATION
[2] = Test System: AMES SALMONELLA TYPHIMURIUM, Strain/Indicator: TA100, Metabolic Activation: NONE, Method: PREINCUBATION
[3] = Test System: AMES SALMONELLA TYPHIMURIUM, Strain/Indicator: TA1535, Metabolic Activation: NONE, Method: PREINCUBATION
[4] = Test System: AMES SALMONELLA TYPHIMURIUM, Strain/Indicator: TA1537, Metabolic Activation: NONE, Method: PREINCUBATION
[5] = Test System: AMES SALMONELLA TYPHIMURIUM, Strain/Indicator: TA98, Metabolic Activation: NONE, Method: STANDARD PLATE
[6] = Test System: AMES SALMONELLA TYPHIMURIUM, Strain/Indicator: TA100, Metabolic Activation: NONE, Method: STANDARD PLATE
[7] = Test System: AMES SALMONELLA TYPHIMURIUM, Strain/Indicator: TA1535, Metabolic Activation: NONE, Method: STANDARD PLATE
[8] = Test System: AMES SALMONELLA TYPHIMURIUM, Strain/Indicator: TA98, Metabolic Activation: RAT, LIVER, S-9, AROCLOR 1254, Method: STANDARD PLATE
[9] = Test System: AMES SALMONELLA TYPHIMURIUM, Strain/Indicator: TA100, Metabolic Activation: RAT, LIVER, S-9, AROCLOR 1254, Method: STANDARD PLATE

## Brc1cccc(-c2ccccc2)c1
Test System: AMES SALMONELLA TYPHIMURIUM, Strain/Indicator: TA98, Metabolic Activation: HAMSTER, LIVER, S-9, AROCLOR 1254, Method: PREINCUBATION
  mutagenic call: inactive; negative
[1]
  mutagenic call: inactive; negative
Test System: AMES SALMONELLA TYPHIMURIUM, Strain/Indicator: TA98, Metabolic Activation: RAT, LIVER, S-9, AROCLOR 1254, Method: PREINCUBATION
  mutagenic call: inactive; negative
Test System: AMES SALMONELLA TYPHIMURIUM, Strain/Indicator: TA100, Metabolic Activation: HAMSTER, LIVER, S-9, AROCLOR 1254, Method: PREINCUBATION
  mutagenic call: inactive; negative
[2]
  mutagenic call: inactive; negative
Test System: AMES SALMONELLA TYPHIMURIUM, Strain/Indicator: TA100, Metabolic Activation: RAT, LIVER, S-9, AROCLOR 1254, Method: PREINCUBATION
  mutagenic call: inactive; negative
Test System: AMES SALMONELLA TYPHIMURIUM, Strain/Indicator: TA1535, Metabolic Activation: HAMSTER, LIVER, S-9, AROCLOR 1254, Method: PREINCUBATION
  mutagenic call: inactive; negative
[3]
  mutagenic call: inactive; negative
Test System: AMES SALMONELLA TYPHIMURIUM, Strain/Indicator: TA1535, Metabolic Activation: RAT, LIVER, S-9, AROCLOR 1254, Method: PREINCUBATION
  mutagenic call: inactive; negative
Test System: AMES SALMONELLA TYPHIMURIUM, Strain/Indicator: TA1537, Metabolic Activation: HAMSTER, LIVER, S-9, AROCLOR 1254, Method: PREINCUBATION
  mutagenic call: inactive; negative
[4]
  mutagenic call: inactive; negative
Test System: AMES SALMONELLA TYPHIMURIUM, Strain/Indicator: TA1537, Metabolic Activation: RAT, LIVER, S-9, AROCLOR 1254, Method: PREINCUBATION
  mutagenic call: inactive; negative

## CN(c1nccc(=O)[nH]1)C1CCN(c2nc3ccccc3n2Cc2ccc(F)cc2)CC1
[1]
  mutagenic call: inactive; negative
Test System: AMES SALMONELLA TYPHIMURIUM, Strain/Indicator: TA98, Metabolic Activation: RAT LIVER S-9, PHENOBARBITAL AND 5,6-BENZOFLAVONE, Method: PREINCUBATION
  mutagenic call: inactive; negative
[2]
  mutagenic call: inactive; negative
Test System: AMES SALMONELLA TYPHIMURIUM, Strain/Indicator: TA100, Metabolic Activation: RAT LIVER S-9, PHENOBARBITAL AND 5,6-BENZOFLAVONE, Method: PREINCUBATION
  mutagenic call: inactive; negative
[3]
  mutagenic call: inactive; negative
Test System: AMES SALMONELLA TYPHIMURIUM, Strain/Indicator: TA1535, Metabolic Activation: RAT LIVER S-9, PHENOBARBITAL AND 5,6-BENZOFLAVONE, Method: PREINCUBATION
  mutagenic call: inactive; negative
[4]
  mutagenic call: inactive; negative
Test System: AMES SALMONELLA TYPHIMURIUM, Strain/Indicator: TA1537, Metabolic Activation: RAT LIVER S-9, PHENOBARBITAL AND 5,6-BENZOFLAVONE, Method: PREINCUBATION
  mutagenic call: inactive; negative
Test System: E.COLI, Strain/Indicator: WP2 UVRA, Metabolic Activation: NONE, Method: PREINCUBATION
  mutagenic call: inactive; negative
Test System: E.COLI, Strain/Indicator: WP2 UVRA, Metabolic Activation: RAT LIVER S-9, PHENOBARBITAL AND 5,6-BENZOFLAVONE, Method: PREINCUBATION
  mutagenic call: inactive; negative

## O=[N+]([O-])c1c(-c2ccc(Cl)cc2)nc2n1CCS2
[5]
  mutagenic call: inactive; negative
[6]
  mutagenic call: active; positive
[7]
  mutagenic call: inactive; negative
Test System: AMES SALMONELLA TYPHIMURIUM, Strain/Indicator: TA1537, Metabolic Activation: NONE, Method: STANDARD PLATE
  mutagenic call: active; positive
Test System: AMES SALMONELLA TYPHIMURIUM, Strain/Indicator: TA1538, Metabolic Activation: NONE, Method: STANDARD PLATE
  mutagenic call: inactive; negative

## C[CH2][Pb]([Cl])([CH2]C)[CH2]C
Test System: AMES SALMONELLA TYPHIMURIUM, Strain/Indicator: TA98, Metabolic Activation: HAMSTER, LIVER, S-9, AROCLOR 1254 (10%), Method: PREINCUBATION
  mutagenic call: inactive; negative
[1]
  mutagenic call: inactive; negative
Test System: AMES SALMONELLA TYPHIMURIUM, Strain/Indicator: TA98, Metabolic Activation: RAT, LIVER, S-9, AROCLOR 1254 (10%), Method: PREINCUBATION
  mutagenic call: inactive; negative
Test System: AMES SALMONELLA TYPHIMURIUM, Strain/Indicator: TA100, Metabolic Activation: HAMSTER, LIVER, S-9, AROCLOR 1254 (10%), Method: PREINCUBATION
  mutagenic call: inactive; negative
[2]
  mutagenic call: inactive; negative
Test System: AMES SALMONELLA TYPHIMURIUM, Strain/Indicator: TA100, Metabolic Activation: RAT, LIVER, S-9, AROCLOR 1254 (10%), Method: PREINCUBATION
  mutagenic call: inactive; negative
Test System: AMES SALMONELLA TYPHIMURIUM, Strain/Indicator: TA1535, Metabolic Activation: HAMSTER, LIVER, S-9, AROCLOR 1254 (10%), Method: PREINCUBATION
  mutagenic call: inactive; negative
[3]
  mutagenic call: inactive; negative
Test System: AMES SALMONELLA TYPHIMURIUM, Strain/Indicator: TA1535, Metabolic Activation: RAT, LIVER, S-9, AROCLOR 1254 (10%), Method: PREINCUBATION
  mutagenic call: inactive; negative
Test System: AMES SALMONELLA TYPHIMURIUM, Strain/Indicator: TA1537, Metabolic Activation: HAMSTER, LIVER, S-9, AROCLOR 1254 (10%), Method: PREINCUBATION
  mutagenic call: inactive; negative
[4]
  mutagenic call: inactive; negative
Test System: AMES SALMONELLA TYPHIMURIUM, Strain/Indicator: TA1537, Metabolic Activation: RAT, LIVER, S-9, AROCLOR 1254 (10%), Method: PREINCUBATION
  mutagenic call: inactive; negative

## CC(C)(Cl)Cl
Test System: AMES SALMONELLA TYPHIMURIUM, Strain/Indicator: GSTT1, Metabolic Activation: RAT, LIVER, S-9, AROCLOR 1254, Method: STANDARD PLATE
  mutagenic call: inactive; negative
Test System: AMES SALMONELLA TYPHIMURIUM, Strain/Indicator: RSJ100, Metabolic Activation: NONE, Method: STANDARD PLATE
  mutagenic call: inactive; negative
[5]
  mutagenic call: inactive; negative
[8]
  mutagenic call: inactive; negative
[6]
  mutagenic call: inactive; negative
[9]
  mutagenic call: inactive; negative
Test System: AMES SALMONELLA TYPHIMURIUM, Strain/Indicator: TA104, Metabolic Activation: NONE, Method: STANDARD PLATE
  mutagenic call: inactive; negative
Test System: AMES SALMONELLA TYPHIMURIUM, Strain/Indicator: TA104, Metabolic Activation: RAT, LIVER, S-9, AROCLOR 1254, Method: STANDARD PLATE
  mutagenic call: inactive; negative
[7]
  mutagenic call: inactive; negative
Test System: AMES SALMONELLA TYPHIMURIUM, Strain/Indicator: TA1535, Metabolic Activation: RAT, LIVER, S-9, AROCLOR 1254, Method: STANDARD PLATE
  mutagenic call: inactive; negative

## OC1c2cccc3ccc4c5ccccc5cc1c4c23 (stereo unspecified)
Test System: AMES SALMONELLA TYPHIMURIUM, Strain/Indicator: TA98, Metabolic Activation: HUMAN, LIVER, CYTOSOL, PAPS, Method: PREINCUBATION
  mutagenic call: active; positive
[1]
  mutagenic call: active; positive
Test System: AMES SALMONELLA TYPHIMURIUM, Strain/Indicator: TA98, Metabolic Activation: RAT, LIVER, CYTOSOL, KCL, Method: PREINCUBATION
  mutagenic call: inactive; negative
Test System: AMES SALMONELLA TYPHIMURIUM, Strain/Indicator: TA98, Metabolic Activation: RAT, LIVER, CYTOSOL, PAPS, KCL, Method: PREINCUBATION
  mutagenic call: active; positive
Test System: AMES SALMONELLA TYPHIMURIUM, Strain/Indicator: TA98, Metabolic Activation: RAT, LIVER, CYTOSOL, PAPS, Method: PREINCUBATION
  mutagenic call: active; positive
Test System: AMES SALMONELLA TYPHIMURIUM, Strain/Indicator: TA98, Metabolic Activation: RAT, LIVER, PAPS, KCL, Method: PREINCUBATION
  mutagenic call: inactive; negative
Test System: AMES SALMONELLA TYPHIMURIUM, Strain/Indicator: TA98, Metabolic Activation: RAT, LIVER, S-9, NADPH, Method: PREINCUBATION
  mutagenic call: active; positive

## Cc1ccc2cccc([N+](=O)[O-])c2c1
[1]
  mutagenic call: active; positive

## Nc1ccc(Cl)c(Cl)c1Cl
[5]
  mutagenic call: inactive; negative
[8]
  mutagenic call: inactive; negative
[6]
  mutagenic call: inactive; negative
[9]
  mutagenic call: inactive; negative
